# Measurements as given in patent US11214803B2, “Modulators of YAP1 expression” (Ionis Pharmaceuticals, Inc., priority 2019, dated 2022).
# Marks after values point to notes of the source that are not given here. Strand notation (5' to 3'): a small letter for the sugar, then the base; units joined by * are phosphorothioate-linked, units joined directly phosphodiester-linked; [ ] holds rarer units or linkages, { } end groups; capitals alone tell only the bases. k = constrained ethyl (cEt); [5mC] = 5-methylcytosine; d = 2'-deoxy (DNA)
# System: Yap1 mRNA
# Assay: Antisense inhibition of human Yap1 in A-431 cells by cEt gapmers, single dose (Example 2, RTS4814)
# Assay type: cell-based
# In short: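 Single-dose knockdown screen of 3-10-3 cEt phosphorothioate gapmers at 2,000 nM added by free uptake to A-431 cells. After roughly 48 h, RNA was isolated and Yap1 transcript measured by RT-qPCR, with results given as % UTC.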
# [1] = Table 6, A-431 cells, 5,000 cells per well, free uptake, 2,000 nM modified oligonucleotide, approx. 48 hours, RTS4814, normalized to RIBOGREEN, Yap1 mRNA relative to untreated control cells
# [2] = Table 22, Yap1 mRNA as percent of untreated control, 3-10-3 cEt gapmers, single dose
# [3] = Table 32, Yap1 mRNA, percent of untreated control, 3-10-3 cEt gapmers targeting SEQ ID NO.: 1, and 2
# [4] = Table 21, Yap1 mRNA, percent of untreated control, 3-10-3 cEt gapmers targeting SEQ ID NO.: 1 and 2
# [5] = Table 24, Yap1 mRNA as percent of untreated control, 3-10-3 cEt gapmers targeting SEQ ID NO.: 1, and 2
# [6] = Table 25, Yap1 mRNA as percent of untreated control, 3-10-3 cEt gapmers targeting SEQ ID NO.: 1, and 2
# [7] = Table 20, Yap1 mRNA, percent of untreated control, 3-10-3 cEt gapmers targeting SEQ ID NO.: 1 and 2
# [8] = Yap1 mRNA as percent of untreated control, A-431 cells, 3-10-3 cEt gapmers targeting SEQ ID NO.: 1, and 2, Table 31
# [9] = Table 19, A-431 cells, 5,000 cells per well, free uptake, 2,000 nM modified oligonucleotide, approx. 48 hours, RTS4814, normalized to RIBOGREEN, Yap1 mRNA as percent of untreated control
# [10] = Table 33, Yap1 mRNA, percent of untreated control, 3-10-3 cEt gapmers targeting SEQ ID NO.: 1, and 2
# [11] = A-431 cells, 5,000 cells per well, free uptake, 2,000 nM modified oligonucleotide, approx. 48 hours, RTS4814, normalized to RIBOGREEN, Table 4, asterisk (*) = targets amplicon region of primer probe set
# [12] = Yap1 mRNA as percent of untreated control, A-431 cells, 3-10-3 cEt gapmers targeting SEQ ID NO.: 1, and 2, Table 30
substance,measurement,setting,value
1075812 (k[5mC]*kA*kT*dT*dA*dA*dG*dA*dT*dT*dT*dT*dA*kA*k[5mC]*k[5mC]; antisense) [Compound 1075812],YAP1 (% UTC),"Table 18, A-431 cells, 5,000 cells per well, free uptake, 2,000 nM modified oligonucleotide, approx. 48 hours, RTS4814, normalized to RIBOGREEN, Yap1 mRNA as percent of untreated control",103 % UTC
716441 (kG*k[5mC]*k[5mC]*dT*dT*dG*dG*dT*dT*dT*d[5mC]*dA*dG*k[5mC]*kT*kA; antisense) [Compound 716441],YAP1 (% UTC),[1],57 % UTC
1074824 (k[5mC]*k[5mC]*kT*dG*dA*dG*d[5mC]*dA*d[5mC]*dT*d[5mC]*dA*dT*kT*kT*k[5mC]; antisense) [Compound 1074824],YAP1 (% UTC),[2],53 % UTC
1076498 (kT*kT*kA*d[5mC]*dA*dA*dT*dA*d[5mC]*d[5mC]*dT*dT*dA*kT*kG*kA; antisense) [compound 1076498],YAP1 (% UTC),[3],70 % UTC
1074439 (k[5mC]*kT*kG*dT*dG*dA*d[5mC]*dA*dT*dG*dA*dA*dG*k[5mC]*kA*kT; antisense) [Compound 1074439],YAP1 (% UTC),[4],2* % UTC
1074954 (antisense k[5mC]*k[5mC]*kG*dG*dG*dT*dT*dT*dT*dT*dG*dT*d[5mC]*kA*kT*k[5mC]) [Compound 1074954],YAP1 (% UTC),[5],91 % UTC
1074667 (antisense k[5mC]*k[5mC]*k[5mC]*dA*dA*d[5mC]*dA*dA*d[5mC]*dA*dT*dG*d[5mC]*kT*kA*kT) [Compound 1074667],YAP1 (% UTC),[6],15 % UTC
1076138 (kA*kG*k[5mC]*d[5mC]*dA*dA*d[5mC]*dA*dA*dT*dT*dT*dT*kT*kG*kG; antisense) [Compound 1076138],YAP1 (% UTC),[5],113 % UTC
1076198 (k[5mC]*kT*kA*dT*dT*dA*dT*d[5mC]*dA*dA*dG*dG*dG*kA*kA*kT; antisense) [Compound 1076198],YAP1 (% UTC),[7],81 % UTC
1074314 (antisense kA*kT*kT*dG*dA*dT*dA*dT*dT*d[5mC]*d[5mC]*dG*d[5mC]*kA*kT*kT) [Compound 1074314],YAP1 (% UTC),[5],12 % UTC
1074545 (kA*k[5mC]*kT*d[5mC]*d[5mC]*d[5mC]*d[5mC]*dT*dA*dG*dG*d[5mC]*dA*k[5mC]*kT*kA; antisense) [compound 1074545],YAP1 (% UTC),[8],18 % UTC
1075366 (kA*k[5mC]*kA*d[5mC]*dG*dA*dA*dA*dA*dT*dA*dG*dT*kT*k[5mC]*kT; antisense) [Compound 1075366],YAP1 (% UTC),[7],27 % UTC
1076075 (kA*k[5mC]*kA*d[5mC]*dA*dA*dG*dG*dG*dT*dT*dG*d[5mC]*kT*kA*kA; antisense) [Compound 1076075],YAP1 (% UTC),[6],38 % UTC
1075986 (kG*kA*kA*dT*dA*dT*d[5mC]*dG*dA*dA*dA*dA*dG*k[5mC]*kA*kA; antisense) [compound 1075986],YAP1 (% UTC),[3],26 % UTC
716368 (kG*kT*k[5mC]*dG*dG*dG*d[5mC]*dA*dG*d[5mC]*dT*dT*d[5mC]*k[5mC]*kG*kG; antisense) [Compound 716368],YAP1 (% UTC),"Table 5, A-431 cells, 5,000 cells per well, free uptake, 2,000 nM modified oligonucleotide, approx. 48 hours, RTS4814, normalized to RIBOGREEN, Yap1 mRNA relative to untreated control cells",86 % UTC
716396 (k[5mC]*kA*kG*dT*dT*d[5mC]*dT*dT*dG*d[5mC]*dT*dG*dT*kT*kT*k[5mC]; antisense) [Compound 716396],YAP1 (% UTC),[1],123 % UTC
1075752 (k[5mC]*kA*kT*dA*dA*dT*dT*dA*dT*dA*d[5mC]*dT*dG*kA*kT*k[5mC]; antisense) [Compound 1075752],YAP1 (% UTC),[2],19 % UTC
1075205 (antisense kA*kT*kT*dA*dA*dA*dT*dG*dA*dG*d[5mC]*dA*d[5mC]*k[5mC]*kA*k[5mC]) [Compound 1075205],YAP1 (% UTC),[9],29 % UTC
1074515 (kT*kA*kA*d[5mC]*dT*dG*dG*dA*dA*dA*dG*d[5mC]*dA*kG*kG*kG; antisense) [compound 1074515],YAP1 (% UTC),[10],9 % UTC
1074219 (antisense kA*kG*kT*d[5mC]*dA*dG*dG*dG*d[5mC]*dT*d[5mC]*d[5mC]*dT*kG*k[5mC]*kA) [Compound 1074219],YAP1 (% UTC),[6],30 % UTC
1075402 (antisense kG*kA*kG*d[5mC]*dA*dA*d[5mC]*dA*d[5mC]*dA*dA*dG*d[5mC]*kA*kT*kA) [Compound 1075402],YAP1 (% UTC),[5],45 % UTC
716540 (antisense kG*kA*kA*dA*dA*dG*dT*dT*dA*dT*dT*dA*d[5mC]*kA*kA*k[5mC]) [Compound 716540],YAP1 (% UTC),[1],120 % UTC
716360 (k[5mC]*kT*kG*d[5mC]*d[5mC]*d[5mC]*dG*dG*dG*dA*dT*d[5mC]*d[5mC]*kA*kT*kG; antisense) [Compound 716360],YAP1 (% UTC),[1],118 % UTC
716555 (kT*kA*k[5mC]*dT*dT*dT*dT*dT*d[5mC]*dA*dA*dG*dA*kT*kA*k[5mC]; antisense) [Compound 716555],YAP1 (% UTC),[1],99 % UTC
1076403 (antisense kA*kT*kT*dT*dA*dA*dG*dA*d[5mC]*d[5mC]*dT*dG*dG*kT*kG*kA) [compound 1076403],YAP1 (% UTC),[10],26 % UTC
1075025 (antisense kA*k[5mC]*kT*dT*dA*dA*dG*dA*dA*d[5mC]*dT*d[5mC]*dA*k[5mC]*kA*k[5mC]) [compound 1075025],YAP1 (% UTC),[8],58 % UTC
716487 (kA*k[5mC]*kA*d[5mC]*dA*dT*dA*d[5mC]*dT*d[5mC]*dT*dA*dG*kT*kT*kA; antisense) [Compound 716487],YAP1 (% UTC),[11],64 % UTC
1075048 (antisense kG*kT*kA*dA*dA*dA*dT*dT*dA*dG*dA*d[5mC]*dT*k[5mC]*k[5mC]*k[5mC]) [Compound 1075048],YAP1 (% UTC),[2],4 % UTC
1075337 (kG*k[5mC]*kT*dT*dA*dT*dA*dT*d[5mC]*d[5mC]*dT*dG*dT*kA*kA*k[5mC]; antisense) [Compound 1075337],YAP1 (% UTC),"Table 23, Yap1 mRNA as percent of untreated control, 3-10-3 cEt gapmers, single dose",48 % UTC
1076325 (k[5mC]*kT*kA*dA*dT*dA*dA*dT*dG*dG*dA*dA*dG*kA*kG*kT; antisense) [Compound 1076325],YAP1 (% UTC),[9],16 % UTC
1075399 (antisense k[5mC]*kA*kT*dA*dT*dA*dT*dA*dT*dG*dG*d[5mC]*d[5mC]*k[5mC]*kT*kT) [Compound 1075399],YAP1 (% UTC),[4],15 % UTC
716357 (k[5mC]*kG*k[5mC]*d[5mC]*d[5mC]*d[5mC]*dG*dG*d[5mC]*dT*d[5mC]*d[5mC]*dA*k[5mC]*kG*kG; antisense) [Compound 716357],YAP1 (% UTC),[1],127 % UTC
1074538 (antisense kA*kT*k[5mC]*d[5mC]*dA*d[5mC]*dA*dG*dT*dA*dA*dT*dA*kG*k[5mC]*kT) [Compound 1074538],YAP1 (% UTC),[5],31 % UTC
1076048 (kG*kA*kT*dT*dA*dA*dA*dG*dG*d[5mC]*dT*dG*dG*kA*kA*kG; antisense) [compound 1076048],YAP1 (% UTC),[12],32 % UTC
1075952 (antisense k[5mC]*kT*kA*dT*dA*dT*dA*d[5mC]*d[5mC]*dT*dG*d[5mC]*dT*kT*k[5mC]*kT) [compound 1075952],YAP1 (% UTC),[12],41 % UTC
1074346 (antisense kA*kT*k[5mC]*dT*dG*dA*dG*d[5mC]*dT*dA*dT*dT*dG*kG*kT*k[5mC]) [Compound 1074346],YAP1 (% UTC),[5],10 % UTC
716469 (kG*kT*kT*dT*dG*d[5mC]*dT*d[5mC]*d[5mC]*dT*dT*dT*d[5mC]*k[5mC]*kA*kA; antisense) [Compound 716469],YAP1 (% UTC),[11],25 % UTC
